In ChEMBL document CHEMBL4043139, “Fluoro and pentafluorothio analogs of the antitumoral curcuminoid EF24 with superior antiangiogenic and vascular-disruptive effects” (Bioorg Med Chem, 2017):

Legend:
[1] = system: MCF7/Topo; experiment: (§1) Cytotoxicity against human MCF7/Topo cells after 72 hrs by MTT assay; format: functional, cell-based
[2] = as §1; format: functional, cell-based
[3] = system: HT-29; experiment: Cytotoxicity against human HT-29 cells after 72 hrs by MTT assay; format: functional, cell-based; details: for IC50: HT-29, 72 h
[4] = (§2) Cytotoxicity against human KB-V1/Vbl cells after 72 hrs by MTT assay; format: functional, cell-based
[5] = system: KB-V1/Vbl; experiment: as §2; format: functional, cell-based
[6] = system: DLD-1; experiment: Cytotoxicity against human DLD1 cells after 72 hrs by MTT assay; format: functional, cell-based; details: for IC50: DLD-1, 72 h
[7] = system: HCT-116; experiment: Cytotoxicity against human HCT116 cells after 72 hrs by MTT assay; format: functional, cell-based; details: for IC50: HCT-116, 72 h
[8] = system: 518A2; experiment: Cytotoxicity against human 518A2 cells after 72 hrs by MTT assay; format: functional, cell-based; details: for IC50: 518A2, 72 h
[9] = system: PANC-1; experiment: Cytotoxicity against human PANC1 cells after 72 hrs by MTT assay; format: functional, cell-based; details: for IC50: PANC-1, 72 h
[10] = system: U-87MG ATCC; experiment: (§3) Cytotoxicity against human U87 cells after 72 hrs by MTT assay; format: functional, cell-based
[11] = as §3; format: functional, cell-based, U-87MG ATCC; details: U-87 MG

SMILES	Activity [1]	IC50 [2]	Activity [3]	IC50 [3]	IC50 [4]	Activity [5]	Activity [6]	IC50 [6]	Activity [7]	IC50 [7]	Activity [8]	IC50 [8]	Activity [9]	IC50 [9]	Activity [10]	IC50 [11]
CCN1C/C(=C\c2cc(F)c(F)cc2F)C(=O)/C(=C/c2cc(F)c(F)cc2F)C1	Dose-dependent effect	1.1 µM	Dose-dependent effect	0.69 µM	0.64 µM	Dose-dependent effect	Dose-dependent effect	0.52 µM	Dose-dependent effect	0.51 µM	Dose-dependent effect	1.5 µM	Dose-dependent effect	0.83 µM	–	–
O=C1/C(=C/c2ccc(S(F)(F)(F)(F)F)cc2)CSC/C1=C\c1ccc(S(F)(F)(F)(F)F)cc1	Dose-dependent effect	0.76 µM	Dose-dependent effect	0.98 µM	0.57 µM	Dose-dependent effect	Dose-dependent effect	0.75 µM	Dose-dependent effect	0.64 µM	Dose-dependent effect	0.85 µM	Dose-dependent effect	0.84 µM	Dose-dependent effect	2.1 µM
CCN1C/C(=C\c2cc(F)cc(F)c2)C(=O)/C(=C/c2cc(F)cc(F)c2)C1	Dose-dependent effect	1 µM	Dose-dependent effect	2.1 µM	2.7 µM	Dose-dependent effect	Dose-dependent effect	0.64 µM	Dose-dependent effect	0.55 µM	Dose-dependent effect	3.3 µM	Dose-dependent effect	1.1 µM	–	–
O=C(/C=C/c1ccc(S(F)(F)(F)(F)F)cc1)/C=C/c1ccc(S(F)(F)(F)(F)F)cc1	Dose-dependent effect	3.4 µM	Dose-dependent effect	1.8 µM	3.6 µM	Dose-dependent effect	Dose-dependent effect	3.2 µM	Dose-dependent effect	1 µM	Dose-dependent effect	4.4 µM	Dose-dependent effect	3.1 µM	Dose-dependent effect	8.7 µM
CCN1C/C(=C\c2c(F)cc(F)cc2F)C(=O)/C(=C/c2c(F)cc(F)cc2F)C1	Dose-dependent effect	2.1 µM	Dose-dependent effect	2 µM	1.2 µM	Dose-dependent effect	Dose-dependent effect	1.4 µM	Dose-dependent effect	1.1 µM	Dose-dependent effect	2 µM	Dose-dependent effect	1.3 µM	–	–
O=C1/C(=C/c2ccc(S(F)(F)(F)(F)F)cc2)CCC/C1=C\c1ccc(S(F)(F)(F)(F)F)cc1	Dose-dependent effect	1.8 µM	Dose-dependent effect	1.1 µM	1.9 µM	Dose-dependent effect	Dose-dependent effect	0.86 µM	Dose-dependent effect	0.71 µM	Dose-dependent effect	1.8 µM	Dose-dependent effect	2 µM	Dose-dependent effect	3.2 µM
CCN1C/C(=C\c2ccc(F)cc2F)C(=O)/C(=C/c2ccc(F)cc2F)C1	Dose-dependent effect	1.8 µM	Dose-dependent effect	3.1 µM	1.2 µM	Dose-dependent effect	Dose-dependent effect	0.96 µM	Dose-dependent effect	2 µM	Dose-dependent effect	2.4 µM	Dose-dependent effect	2.3 µM	–	–
CCN1C/C(=C\c2ccccc2F)C(=O)/C(=C/c2ccccc2F)C1	Dose-dependent effect	2 µM	Dose-dependent effect	5.2 µM	3.1 µM	Dose-dependent effect	Dose-dependent effect	0.93 µM	Dose-dependent effect	1.8 µM	Dose-dependent effect	1.8 µM	Dose-dependent effect	1.7 µM	–	–
CN1C/C(=C\c2ccccc2F)C(=O)/C(=C/c2ccccc2F)C1	Dose-dependent effect	2.3 µM	Dose-dependent effect	2.2 µM	1.8 µM	Dose-dependent effect	Dose-dependent effect	0.81 µM	Dose-dependent effect	1.3 µM	Dose-dependent effect	1.8 µM	Dose-dependent effect	2.2 µM	–	–
O=C1/C(=C/c2ccc(F)c(F)c2)CSC/C1=C\c1ccc(F)c(F)c1	Dose-dependent effect	1.6 µM	Dose-dependent effect	1.3 µM	0.76 µM	Dose-dependent effect	Dose-dependent effect	1.8 µM	Dose-dependent effect	2 µM	Dose-dependent effect	1.5 µM	Dose-dependent effect	2.1 µM	Dose-dependent effect	2.3 µM
CN1C/C(=C\c2ccc(F)c(F)c2)C(=O)/C(=C/c2ccc(F)c(F)c2)C1	Dose-dependent effect	1.3 µM	Dose-dependent effect	1.5 µM	0.99 µM	Dose-dependent effect	Dose-dependent effect	0.47 µM	Dose-dependent effect	0.51 µM	Dose-dependent effect	1.5 µM	Dose-dependent effect	1.5 µM	–	–
